The record followed here is US20230141603A1, “BENZODIAZEPINE DERIVATIVES AS GABA A GAMMA1 PAM” (Hoffmann-La Roche Inc., priority 2021, published 2023).

In one assay the target is T1, h-GABAA α1β3γ2 (Homo sapiens, UniProt P14867+P18507).
T1 construct: expressed in transfected cells; host or cells: HEK293F cells, membranes
Put plainly: Radioligand binding assay, [3H]Flumazenil competition, HEK293F membranes. The conditions noted are these: for LogSel / γ2/γ1 Selectivity Ratio: Table 3; for LogSel: Log[Ki α1β3γ2 (nM)/Ki α2β2γ1 (nM)]; for γ2/γ1 Selectivity Ratio: Ki α1β3γ2 (nM)/Ki α2β2γ1 (nM). How it is done: The affinity of compounds at GABAA γ2 subunit-containing receptors was measured by competition for [^3H]Flumazenil (81.1 Ci/mmol; Roche) binding to HEK293F cells expressing human (transiently transfected) receptors of composition α1β3γ2.
Harvested pellets from HEK293F cells expressing the different GABAA γ2 receptor subtypes were resuspended in Mannitol Buffer pH 7.2-7.4 and processed as described above for the cells expressing the GABAA γ1 subunit-containing receptors.
Assays were incubated to equilibrium for 1 hour at 4° C. and harvested onto GF/C uni-filters (Packard) by filtration using a Packard harvester and washing with ice-cold wash buffer (50 mM Tris; pH 7.5). After drying, filter-retained radioactivity was detected by liquid scintillation counting. Ki values were calculated using Excel-Fit (Microsoft) and are the means of two determinations.

In assay [1] the target is T2, h-GABAA α2β2γ1 (Homo sapiens, UniProt P47869+Q8N1C3).
T2 sequence (P47869 29-451): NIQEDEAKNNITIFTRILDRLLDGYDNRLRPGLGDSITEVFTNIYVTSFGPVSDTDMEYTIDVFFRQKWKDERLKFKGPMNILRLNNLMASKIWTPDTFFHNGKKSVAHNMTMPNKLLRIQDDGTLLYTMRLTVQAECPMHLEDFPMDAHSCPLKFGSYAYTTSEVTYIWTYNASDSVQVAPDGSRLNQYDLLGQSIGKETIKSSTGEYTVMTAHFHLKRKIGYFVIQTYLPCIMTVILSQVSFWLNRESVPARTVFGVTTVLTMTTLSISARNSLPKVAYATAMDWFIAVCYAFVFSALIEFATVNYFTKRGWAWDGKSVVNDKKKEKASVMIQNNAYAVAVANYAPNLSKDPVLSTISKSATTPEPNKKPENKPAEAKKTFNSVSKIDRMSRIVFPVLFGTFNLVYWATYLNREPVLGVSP
T2 sequence (P47870 25-512 partner limits assumed): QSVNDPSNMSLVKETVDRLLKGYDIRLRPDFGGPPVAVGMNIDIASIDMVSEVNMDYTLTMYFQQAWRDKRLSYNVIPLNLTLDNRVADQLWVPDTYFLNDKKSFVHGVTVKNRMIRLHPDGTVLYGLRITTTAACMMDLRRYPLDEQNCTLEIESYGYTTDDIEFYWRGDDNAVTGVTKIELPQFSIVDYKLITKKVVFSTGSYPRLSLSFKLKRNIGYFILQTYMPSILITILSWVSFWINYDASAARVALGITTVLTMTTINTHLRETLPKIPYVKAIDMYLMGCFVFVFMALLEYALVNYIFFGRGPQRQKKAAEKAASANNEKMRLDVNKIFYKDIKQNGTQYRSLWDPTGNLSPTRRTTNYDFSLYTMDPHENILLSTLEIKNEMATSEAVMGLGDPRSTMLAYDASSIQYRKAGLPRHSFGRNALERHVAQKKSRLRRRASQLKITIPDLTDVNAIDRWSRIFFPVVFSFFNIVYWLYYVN
T2 sequence (Q8N1C3 36-465): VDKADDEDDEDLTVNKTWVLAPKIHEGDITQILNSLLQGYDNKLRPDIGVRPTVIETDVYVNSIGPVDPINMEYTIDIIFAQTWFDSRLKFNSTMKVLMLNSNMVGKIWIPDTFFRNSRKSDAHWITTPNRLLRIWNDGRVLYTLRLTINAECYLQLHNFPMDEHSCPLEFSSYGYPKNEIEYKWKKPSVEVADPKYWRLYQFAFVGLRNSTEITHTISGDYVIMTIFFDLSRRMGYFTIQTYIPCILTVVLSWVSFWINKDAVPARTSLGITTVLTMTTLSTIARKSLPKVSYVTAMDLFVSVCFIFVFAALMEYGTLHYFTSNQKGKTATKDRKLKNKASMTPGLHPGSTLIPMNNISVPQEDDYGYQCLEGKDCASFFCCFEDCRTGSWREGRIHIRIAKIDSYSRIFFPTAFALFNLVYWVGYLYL
Put plainly: Two-electrode voltage clamp electrophysiology in Xenopus oocytes, modulation of GABA EC20 current. The class given is cell-based. The conditions noted are these: α2β2γ1 GABAA receptor subtype expressing oocytes; reference PAMs. The arrangement: host or cells: Xenopus laevis oocytes, RNA micro-injection. How it is done: Xenopus laevis oocytes at maturation stages V-VJ were used for the expression of cloned mRNA encoding GABAA receptor subunits. Oocytes ready for RNA micro-injection were bought from Ecocyte, Castrop-Rauxel, Germany and stored in modified Barth's medium (composition in mM: NaCl 88, KCl 1, NaHCO3 2.4, HEPES 10, MgSO4 0.82, CaNO3 0.33, CaCl2 0.33, pH=7.5) at 20° C. until the experiment.
Oocytes were plated in 96-well plates for microinjection using the Roboinject automated instrument (MultiChannelSystems, Reutlingen, Germany). Approximately 50 nL of an aqueous solution containing the RNA transcripts for the subunits of the desired GABAA receptor subtype was injected into each oocyte. […] Oocytes were kept in modified Barth's medium (composition in mM: NaCl 88, KCl 1, NaHCO3 […], HEPES 10, MgSO4 0.82, CaNO3 0.33, CaCl2 0.33, pH=7.5) at 20° C. until the experiment.
Electrophysiological experiments were performed using the Roboocyte instrument (MultiChannelSystems, Reutlingen, Germany) on days 3 to 5 after the micro-injection of mRNA. During the experiment the oocytes were constantly superfused by a solution containing (in mM) NaCl 90, KCl 1, HEPES 5, MgCl2 1, CaCl2 1 (pH 7.4). Oocytes were impaled by two glass microelectrodes (resistance: 0.5-0.8 MΩ) which were filled with a solution containing KCl 1M+K-acetate 1.5 M and voltage-clamped to −80 mV. The recordings were performed at room temperature using the Roboocyte two-electrode voltage clamp system (Multichannelsystem). After an initial equilibration period of 1.5 min GABA was added for 1.5 min at a concentration evoking approximately 20% of a maximal current response (EC20). After another rest interval of 2.5 min GABA was again added evoking a response of similar amplitude and shape. […] Current traces were recorded at a digitization rate of 10 Hz during and shortly before and after the GABA application.
Each compound and concentration was tested on at least 3 oocytes. Different oocytes were used for different compound concentrations.
For the analysis, the digitized current traces of the first and second GABA response were superimposed and, if necessary, rescaled to equal maximal amplitudes. The ratio between the two responses during the time interval of test compound application was calculated point by point. The extremum of the resulting “ratio trace” was taken as the efficacy (“Fold increase”) of the compound expressed as “% modulation of GABA EC20” (100*(Fold increase−1)).

For assay [2], the target named is T2, h-GABAA α2β2γ1. Put plainly: Radioligand binding assay, [3H]RO7239181 competition, HEK293F membranes. Set-up: signal peptide of human GABAA α5 subunit (Met1 to Ser31), replacing the α2 signal peptide (N); expressed in transfected cells; host or cells: HEK293F cells (ThermoFisher R79007), membranes. How it is done: (§1) The affinity of compounds at GABAA γ1 subunit-containing receptors was measured by competition for [^3H]RO7239181 (67.3 Ci/mmol; Roche) binding to membranes from HEK293F cells (ThermoFisher R79007) expressing human (transiently transfected) receptors of composition […], α2β2γ1, α1β2γ1.
(§2) Harvested pellets from HEK293F cells expressing the different GABAA receptor subtypes were resuspended in Mannitol Buffer pH 7.2-7.4 (Mannitol 0.29M, Triethylamine 10 mM, Acetic acid 10 mM, EDTA 1 mM plus protease inhibitors (20 tablets Complete, Roche Diagnostics Cat. No. 05 056 489 001 per liter)), washed two times and then resuspended at 1:10 to 1:15 dilution in the same buffer. Cell disruption was performed by stirring the suspension in a Parr vessel #4637 at 435 psi for 15 minutes, and then the suspensions were centrifuged at 1000×g for 15 minutes at 4° C. (Beckman Avanti J-HC; rotor JS-4.2). The supernatant (S1) was transferred in a 21 Schott flask and the pellet (P1) was resuspended with Mannitol Buffer up to 175 ml. The resuspended pellet was transferred into a 250 ml Corning centrifugal beaker and centrifuged at 1500×g for 10 minutes at 4° C. (Beckman Avanti J-HC; rotor JS-4.2). The supernatant (S1) was then transferred in the 21 Schott flask and the pellet was discarded. The supernatants (S1) were centrifuged in 500 ml Beckman polypropylene centrifugal beaker at 15′000×g for 30 minutes at 4° C. (Beckman Avanti J-20 XP; rotor JLA-10.500). The pellet (P2) was resuspended with Mannitol Buffer 1:1 and frozen at −80° C. The supernatant (S2) was centrifuged in 100 ml Beckman polypropylene centrifugal tubes at 48000×g for 50 minutes at 4° C. (Beckman Avanti J-20 XP; rotor JA-18). The supernatant (S3) was discarded and the pellet (P3) was resuspended with 1:1 Mannitol Buffer. The P2 and P3 protein concentration was determined with the BIORAD Standard assay method with bovine serum albumin as standard and measured on the NANO-Drop 1000. The membrane suspension was aliquots (500 μl per tube) and stored at −80° C. until required. Membrane homogenates were resuspended and polytronised (Polytron PT1200E Kinematica AG) in Potassium Phosphate 10 mM, KCl 100 mM binding buffer at pH 7.4 to a final assay concentration determined with a previous experiment.
(§3) Assays were incubated to equilibrium for 1 hour at 4° C. and then, membranes were filtered onto unifilter (96-well white microplate with bonded GF/C filters preincubated 20-50 minutes in 0.3% Polyethylenimine) with a Filtermate 196 harvester (Packard BioScience) and washed 4 times with cold Potassium Phosphate 10 mM pH 7.4, KCl 100 mM binding buffer. After drying, filter-retained radioactivity was detected by liquid scintillation counting. Ki values were calculated using Excel-Fit (Microsoft) and are the means of two determinations.

A further assay addresses T3, h-GABAA α1β2γ1 (Homo sapiens, UniProt P14867+Q8N1C3).
T3 construct: expressed in transfected cells; host or cells: HEK293F cells (ThermoFisher R79007), membranes
T3 sequence (P14867 28-456): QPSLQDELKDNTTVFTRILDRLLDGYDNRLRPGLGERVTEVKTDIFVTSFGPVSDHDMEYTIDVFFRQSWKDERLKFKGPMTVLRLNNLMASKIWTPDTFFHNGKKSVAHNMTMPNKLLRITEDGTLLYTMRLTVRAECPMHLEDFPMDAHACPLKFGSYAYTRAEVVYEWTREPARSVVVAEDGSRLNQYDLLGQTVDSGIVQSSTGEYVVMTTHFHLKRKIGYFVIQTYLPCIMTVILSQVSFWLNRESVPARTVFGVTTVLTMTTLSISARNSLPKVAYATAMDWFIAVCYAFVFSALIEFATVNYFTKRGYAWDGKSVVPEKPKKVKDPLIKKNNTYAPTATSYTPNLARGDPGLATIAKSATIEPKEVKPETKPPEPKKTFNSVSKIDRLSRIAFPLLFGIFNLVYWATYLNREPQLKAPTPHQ
T3 sequence (P47870 25-512 partner limits assumed): T2 sequence (P47870 25-512 partner limits assumed)
T3 sequence (Q8N1C3 36-465): T2 sequence (Q8N1C3 36-465)
Described as above. How it is done:
as §1, §2, §3

`Cc1nnc2n1-c1ccc(Cl)cc1C(c1ccccc1Cl)=NC2` [Triazolam, reference compound] had a LogSel on h-GABAA α1β3γ2 of −1.5. Further, on h-GABAA α2β2γ1 [1], the “potentiation of the GABA-induced current” value is on record as around 60%.

As usually defined, the Ki is a measure of affinity in units of concentration, obtained from inhibition or displacement. A high value points to lower affinity. With `Cc1nnc2n1-c1ccccc1C(c1c(F)cccc1F)=NC2` [RE-C, 6-(2,6-difluorophenyl)-1-methyl-4H-[1,2,4]triazolo[4,3-a][1,4]benzodiazepine, reference compound], on h-GABAA α1β3γ2, the inhibitory constant (Ki) amounted to 0.0058 µM, the “γ2/γ1 Selectivity Ratio” value turned out to be 0.0092 and the LogSel was −2.0. The same molecule yielded an inhibition constant (Ki) at h-GABAA α2β2γ1 [2] of 0.627 µM.

Turning to `Cc1nnc2n1-c1ccc(Cl)cc1C(c1ccccc1)=NC2` [Alprazolam, reference compound], the inhibition constant Ki came to 0.0196 µM on h-GABAA α1β3γ2, 5.92 µM at h-GABAA α1β2γ1 and 3.94 µM at h-GABAA α2β2γ1 [2]. The LogSel at h-GABAA α1β3γ2 is on record as −2.3.

`Cc1nnc2n1-c1cccc(Cl)c1C(c1c(F)cccc1F)=NC2` [RE-G, 7-chloro-6-(2,6-difluorophenyl)-1-methyl-4H-[1,2,4]triazolo[4,3-a][1,4]benzodiazepine, reference compound]: at h-GABAA α1β3γ2, the inhibitory constant (Ki) came to 0.302 µM, the “γ2/γ1 Selectivity Ratio” value is listed as 9.8 and the LogSel was found to be 0.99. Also, at h-GABAA α2β2γ1 [2], the inhibition constant Ki worked out at 0.0308 µM.

With `Clc1ccc2c(c1)C(c1ccccc1)=NCc1nncn1-2` [Estazolam, reference compound], the inhibition constant (Ki) on h-GABAA α1β3γ2 worked out at 0.0284 µM; at h-GABAA α2β2γ1 [2], 3.18 µM. On h-GABAA α1β3γ2, this molecule yielded a LogSel of −2.0.

`Cc1nnc2n1-c1ccc(Br)cc1C(c1c(F)cccc1F)=NC2` [RE-A, 8-bromo-6-(2,6-difluorophenyl)-1-methyl-4H-[1,2,4]triazolo[4,3-a][1,4]benzodiazepine, reference compound]: at h-GABAA α1β3γ2, the affinity, expressed as Ki, was 0.0056 µM; the “γ2/γ1 Selectivity Ratio” value came out at 0.18; the LogSel is recorded as −0.74. In addition, the inhibition constant (Ki) on h-GABAA α2β2γ1 [2] was 0.0321 µM.

As for `Cc1nnc2n1-c1ccc(C(F)(F)F)cc1C(c1c(F)cccc1F)=NC2` [RE-B, 6-(2,6-difluorophenyl)-1-methyl-8-(trifluoromethyl)-4H-[1,2,4]triazolo[4,3-a][1,4]benzodiazepine, reference compound], at h-GABAA α1β3γ2, affinity was put at a Ki of 0.0156 µM, the “γ2/γ1 Selectivity Ratio” value came to 0.23 and the LogSel is recorded as −0.64. The molecule further gave a Ki at h-GABAA α2β2γ1 [2] of 0.0684 µM.
